Measured values reported in patent publication US11014896B2, “TRPA1 and TRPV4 inhibitors and methods of using the same for organ-specific inflammation and itch” (Duke University, priority 2014, dated 2021).
Entries after “also recorded” stand apart in the source; their conditions may differ.

What was measured:
[1] = test system: primary mouse keratinocytes (1° MK); test: UVB-evoked Ca++ signaling in primary mouse keratinocytes (fluo-4 imaging); type: cell-based; settings: GSK205 20 μM
Description: Ca++ imaging of 1° MK was conducted following routine procedures. For UVB stimulation, a customized device was built. The system comprised a printed circuit board for electrical interconnects and mechanical support and an ultraviolet light-emitting diode (UV LED).
The operating wavelength was 295 nm (FIG. 2A), with a full-width half-max of 12 nm. The optical power was 500 mW. The focal point was aimed at the plane of the upper surface of the quartz coverslip, which was used to minimize UV absorption along the optical path towards the cells (FIG. 2A-FIG. 2C). The optical intensity at the focal point was estimated to be 150 mW/mm^2.
(§1) Ca++ imaging of mouse 1° MK in response to chemical activation of TRPV4 was conducted after loading with 2 μM fura2-AM, following a ratiometric Ca2+ imaging protocol with 340/380 nm […] for dual excitation. Ratios of emissions were acquired at 0.5 Hz. ΔR/R0 was determined as the fraction of the increase of a given ratio over baseline ratio, divided by baseline ratio. For stimulation of cells with UVB, where fura-2 was not suitable because of the proximity of stimulation with 340/380 nm and 295 nm, 2 μM fluo4-AM was used instead. Ca++ imaging was carried out at 488 nm excitation, acquisition of emissions at 0.5 Hz, expressed as ΔF/F0. In the custom-built UV optical system, UV LEDs were capped with a ball lens, a transparent optical window in the shape of a hemispherical lens (FIG. 2B). The LED output optical beam focused at 15-20 mm from the lens, with a spot diameter of approximately 1.5-2.0 mm (FIG. 2C). […] The thermal equilibration stage was set for physiological temperature.

TRPV4 [2] = molecular target: T1, TRPV4 (Mus musculus, UniProt Q9EPK8); test: GSK101-evoked Ca++ transient in 1° MK; type: cell-based; settings: 5 nM GSK101; GSK205 20 μM
T1 construct: endogenous in cells; host or cells: primary mouse epidermal keratinocytes (1° MK), wild type
T1 sequence (Q9EPK8 whole entry): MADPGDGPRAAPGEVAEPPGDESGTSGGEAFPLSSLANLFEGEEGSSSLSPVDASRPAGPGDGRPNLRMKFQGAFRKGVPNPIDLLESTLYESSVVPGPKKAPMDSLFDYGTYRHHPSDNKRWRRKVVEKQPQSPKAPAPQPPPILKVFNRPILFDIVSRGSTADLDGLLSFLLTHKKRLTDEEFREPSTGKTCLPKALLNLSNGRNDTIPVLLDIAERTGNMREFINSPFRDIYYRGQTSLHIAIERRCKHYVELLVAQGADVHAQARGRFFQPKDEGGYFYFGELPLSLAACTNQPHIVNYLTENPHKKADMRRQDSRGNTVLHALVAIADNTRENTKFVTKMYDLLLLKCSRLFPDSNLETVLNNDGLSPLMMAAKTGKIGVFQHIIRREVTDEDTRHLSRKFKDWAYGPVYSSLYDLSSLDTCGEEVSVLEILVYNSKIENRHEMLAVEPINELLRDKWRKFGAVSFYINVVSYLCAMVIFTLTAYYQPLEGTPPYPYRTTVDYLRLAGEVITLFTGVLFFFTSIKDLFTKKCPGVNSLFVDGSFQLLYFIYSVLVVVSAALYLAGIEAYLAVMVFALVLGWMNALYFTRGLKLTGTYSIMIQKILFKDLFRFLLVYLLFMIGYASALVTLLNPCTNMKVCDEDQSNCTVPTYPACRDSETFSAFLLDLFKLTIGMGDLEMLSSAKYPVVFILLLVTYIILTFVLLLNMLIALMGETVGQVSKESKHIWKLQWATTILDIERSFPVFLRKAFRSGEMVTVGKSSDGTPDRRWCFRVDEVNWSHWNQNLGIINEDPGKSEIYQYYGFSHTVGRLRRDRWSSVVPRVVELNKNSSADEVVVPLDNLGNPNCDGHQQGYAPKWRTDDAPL
Description: as §1, with “temperature. We confirmed the non-thermal nature of UVB stimulation using the customized 295 nm LED device in a dedicated experiment (FIG. 2D), thus confirming the specific modality of stimulation as UVB.” for “temperature.”

TRPV4 [3] = molecular target: T1, TRPV4; test: 4α-PDD-evoked Ca++ signaling in 1° MK (fura-2); type: cell-based; settings: fura-2 ratiometric imaging
Description: as §1, with “temperature. We confirmed the non-thermal nature of UVB stimulation using the customized 295 nm LED device in a dedicated experiment (FIG. 2D), thus confirming the specific modality of stimulation as UVB.” for “temperature.”

[4] = Nocifensive behavior in response to ET1 footpad injection (von Frey); type: in vivo, mouse; settings: footpad injection of ET1; WT and oil-treated iKO (control) mice
Description: ET1 injections: After determining base-line withdrawal thresholds, each animal received an intraplantar injection of 10 μL 100 nM ET-1 plus contralateral vehicle. Thresholds were again evaluated 1 hour after injection.
Hindpaw mechanical withdrawal thresholds were determined by the automated von Frey hair method, using a 0.5 mm diameter stainless steel filament, part of an automated plantar touch stimulator (Ugo Basile, Modena, Italy). Relevant detail included pre-test acclimatization in a quiet room for 30 min, conducting the test at the same time of day and blinded observers. The stimulus was delivered to the hindpaw, automatically discontinued upon withdrawal, and its intensity recorded automatically. 6-8 trials per animal were conducted, with equal exposure of both hindpaws, leading to an average withdrawal threshold. Results are reported as […], which was calculated by subtracting post-treatment from pre-treatment measurements, expressed as % or relative to 1.0.

ET1: endothelin-1, cognate peptide ligand of endothelin receptors
UVB-evoked Ca++ signaling (ΔF/F0) [1]: significant increase; also recorded: augmentation
GSK101-evoked Ca++ transient (TRPV4 [2]): augmented; also recorded: increase in signal
4α-PDD-evoked Ca++ transients on co-application (TRPV4 [3]): significant increase in the response
mechanical allodynia / von Frey withdrawal thresholds after ET1 injection [4]: significantly lowered; also recorded: significant levels of mechanical allodynia
